Laboratory results: publication PMC7588913, “A Peptide Found in Human Serum, Derived from the C-Terminus of Albumin, Shows Antifungal Activity In Vitro and In Vivo” (Microorganisms, 2020)
Where two headings read alike, the source gives them in different places. Where a SMILES comes first, the peptide text is derived from it.

How the values were obtained:
C. albicans SC5314 = assay: Colony forming unit (CFU) candidacidal assay; assay type: cell-based, Candida albicans; conditions: 100 μg/mL vs reference strain C. albicans SC5314, CFU assay
Description: The fungicidal activity of the selected peptides was evaluated in vitro by a previously described colony forming unit (CFU) assay. All peptides were preliminarily tested at the concentration of 100 μg/mL vs. the reference strain C. albicans SC5314. […] After incubation at 37 °C for 6 h in the presence or absence (control growth) of the peptides, fungal cell suspensions (approximately 500 cells/100 μL of distilled water) were spread on Sabouraud Dextrose agar plates. After incubation at 30 °C for 48–72 h, CFUs were enumerated. Each assay was carried out in triplicate and at least 2 independent experiments were performed for each condition. EC50 values were calculated by nonlinear regression analysis using Graph Pad Prism 4.01 software, San Diego, CA, USA. Time kinetics of K13L-mediated killing against the reference C. albicans strain was determined by CFU assays, as described above, after incubation of yeast cells for 30 min, 1, 2, 4 and 6 h with K13L at different concentrations.

LLC-MK2 cells = assay type: cell-based, Rhesus monkey
Description: (§1) The hemolytic and cytotoxic activity of the selected peptides (25, 50 and 100 μM) was evaluated as previously described. For the evaluation of hemolytic activity, peptides were added to human erythrocytes (blood group 0 Rh+, final concentration, 2.5% v/v) and hemoglobin release was estimated after 30 and 120 min incubation by measuring the absorbance of the supernatant at 540 nm. Erythrocytes suspended in phosphate buffered saline (PBS) and Triton 1% were the controls for zero (blank) and 100% hemolysis, respectively. Cytotoxicity against Rhesus monkey kidney epithelial cells (LLC-MK2 line) treated with peptides for 24 h was assessed after resazurin addition by measuring fluorescence intensity at 572 nm. Cells in medium without peptide served as control (100% viability). Each assay was carried out in duplicate and at least 2 independent replicates were performed for each experiment.
(§2) Data are reported as the mean ± SD. Statistical significance was assessed by t test, p < 0.05 was considered significant.

human erythrocytes = assay type: cell-based
Description: as §1, §2

Galleria mellonella = assay: In vivo toxicity in Galleria mellonella larvae; conditions: K13L 33.33 mg/kg into the haemocoel, 37 °C, monitored 9 days, Mantel–Cox log-rank test
Description: The potential therapeutic activity of K13L was evaluated by the G. mellonella model of experimental candidiasis, according to a previously described procedure. To preliminarily evaluate in vivo toxicity, a solution of K13L (33.33 mg/kg) was inoculated directly into the haemocoel, via the last left pro-leg, in larvae at their final instar stage (body weight, 300 ± 20 mg, 10 μL/larva). Larvae inoculated with 10 μL of saline solution and untouched larvae served as controls. All animals were incubated at 37 °C in the dark and monitored daily for survival for 9 days. For the evaluation of therapeutic activity, larvae (16/group) were challenged with C. albicans SC5314 (5 × 10^5 yeast cells/larva, 10 μL) via the last left pro-leg. A solution of K13L (16.66 mg/kg,) or saline (control) was injected 60 min later, via the last right proleg (10 μL). Larvae were monitored daily for 9 days after infection. The log rank (Mantel–Cox) test was used to compare survival curves by Graph Pad Prism software.

SMILES: CC(C)C[C@H](NC(=O)[C@H](Cc1ccccc1)NC(=O)[C@H](CC(=O)O)NC(=O)CNC(=O)[C@H](CCC(=O)O)NC(=O)CNC(=O)[C@H](CO)NC(=O)[C@@H](N)CC(=O)O)C(=O)N[C@@H](C)C(=O)N[C@@H](CCC(=O)O)C(=O)NCC(=O)NCC(=O)NCC(=O)N[C@H](C(=O)N[C@@H](CCCNC(=N)N)C(=O)O)C(C)C [Peptide D15R] (H-DSGEGDFLAEGGGVR-OH; N-terminus and C-terminus assumed)
- Fungicidal activity in preliminary assay (C. albicans SC5314): no activity
- Cell Viability (%) (LLC-MK2 cells; 25 µM): 101.32 ± 1.92%
- Cell Viability (%) (LLC-MK2 cells; 50 µM): 101.25 ± 0.19%
- Cell Viability (%) (LLC-MK2 cells; 100 µM): 103.00 ± 1.49%

SMILES: C[C@H](NC(=O)[C@H](CCC(=O)O)NC(=O)[C@H](CO)NC(=O)CNC(=O)[C@H](C)NC(=O)[C@H](CCC(=O)O)NC(=O)[C@@H](N)CC(=O)O)C(=O)N[C@@H](CC(=O)O)C(=O)N[C@@H](Cc1c[nH]cn1)C(=O)N[C@@H](CCC(=O)O)C(=O)NCC(=O)N[C@H](C(=O)N[C@@H](Cc1c[nH]cn1)C(=O)N[C@@H](CO)C(=O)N[C@H](C(=O)O)[C@@H](C)O)[C@@H](C)O [Peptide D15T] (H-DEAGSEADHEGTHST-OH; N-terminus and C-terminus assumed)
- Fungicidal activity in preliminary assay (C. albicans SC5314): no activity
- Hemolysis (%) (human erythrocytes; 25 µM): 0.00%
- Hemolysis (%) (human erythrocytes; 50 µM): 0.00%
- Cell Viability (%) (LLC-MK2 cells; 25 µM): 108.50 ± 0.92%
- Cell Viability (%) (LLC-MK2 cells; 50 µM): 107.55 ± 1.48%
- Cell Viability (%) (LLC-MK2 cells; 100 µM): 108.50 ± 5.15%

SMILES: CC[C@H](C)[C@H](NC(=O)[C@H](CCCCN)NC(=O)[C@H](CO)NC(=O)CNC(=O)[C@H](CC(C)C)NC(=O)[C@H](CO)NC(=O)[C@H](Cc1ccccc1)NC(=O)[C@H](CCC(N)=O)NC(=O)[C@H](CC(C)C)NC(=O)[C@H](CCC(=O)O)NC(=O)[C@H](CCC(=O)O)NC(=O)[C@H](CCC(=O)O)NC(=O)[C@H](CC(C)C)NC(=O)CN)C(=O)N[C@@H](CC(N)=O)C(=O)N[C@H](C(=O)N[C@@H](CCCCN)C(=O)O)C(C)C [Peptide G17K] (H-GLEEELQFSLGSKINVK-OH)
- Hemolysis (%) (human erythrocytes; 25 µM): 0.00%
- Cell Viability (%) (LLC-MK2 cells; 25 µM): 99.07 ± 1.57%
- Cell Viability (%) (LLC-MK2 cells; 50 µM): 99.73 ± 0.45%
- Cell Viability (%) (LLC-MK2 cells; 100 µM): 99.07 ± 1.57%

SMILES: CC(C)C[C@H](NC(=O)CNC(=O)[C@H](CC(C)C)NC(=O)[C@H](C)NC(=O)[C@H](C)NC(=O)[C@H](CCC(N)=O)NC(=O)[C@H](CO)NC(=O)[C@H](C)NC(=O)[C@H](C)NC(=O)[C@@H](NC(=O)[C@H](CC(C)C)NC(=O)[C@H](CCCCN)NC(=O)[C@@H](N)CCCCN)C(C)C)C(=O)O [Peptide K13L] (H-KKLVAASQAALGL-OH)
- Cell Viability (%) (LLC-MK2 cells; 25 µM): 105.95 ± 1.47%
- Cell Viability (%) (LLC-MK2 cells; 50 µM): 105.04 ± 0.20%
- Cell Viability (%) (LLC-MK2 cells; 100 µM): 101.26 ± 0.38%
- Survival of larvae vs saline-inoculated larvae (in vivo toxicity) (Galleria mellonella): No significant difference in survival

SMILES: CC(C)[C@H](NC(=O)[C@@H](NC(=O)[C@H](Cc1ccccc1)NC(=O)CNC(=O)[C@H](CCC(=O)O)NC(=O)[C@H](CC(N)=O)NC(=O)[C@H](CCC(=O)O)NC(=O)[C@H](CCCCN)NC(=O)[C@@H](NC(=O)[C@H](CCC(=O)O)NC(=O)[C@H](CCC(=O)O)NC(=O)[C@@H](N)CO)[C@@H](C)O)[C@@H](C)O)C(=O)N[C@H](C(=O)N[C@@H](C)C(=O)N[C@@H](CCC(=O)O)C(=O)NCC(=O)N[C@@H](CCCCN)C(=O)O)[C@@H](C)O [Peptide S17K] (H-SEETKENEGFTVTAEGK-OH; N-terminus and C-terminus assumed)
- Fungicidal activity in preliminary assay (C. albicans SC5314): no activity
- Hemolysis (%) (human erythrocytes; 25 µM): 0.00%
- Cell Viability (%) (LLC-MK2 cells; 25 µM): 103.47 ± 2.00%
- Cell Viability (%) (LLC-MK2 cells; 50 µM): 102.69 ± 1.37%
- Cell Viability (%) (LLC-MK2 cells; 100 µM): 101.73 ± 1.82%
